According to patent US12389911B2, “Benzimidazole compound or salt thereof, agricultural and horticultural insecticidal and acaricidal agent containing said compound, and method for using same” (NIHON NOHYAKU CO., LTD., priority 2019, dated 2025):

Columns and labels:
[1] = tested on: Two-spotted spider mite (Tetranychus urticae); assay: Acaricidal action on two-spotted spider mite (kidney bean leaf disk spray); format: in vivo; conditions: 500 ppm, adult females, 25° C., two days after treatment
Experimental: Acaricidal Action on Two-Spotted Spider Mite (Tetranychus urticae)
Leaf disk having a diameter of 2 cm was prepared by leaves of kidney bean, and the leaf disk was placed on the wetted filter paper. Adult hens of two-spotted spider mite were inoculated on the wetted filter paper, and then 50 ml of an agrochemical dispersion, prepared by diluting a formulation containing the benzimidazole compound represented by the general formula (1) of the present invention or salt thereof as an active ingredient to adjust each of the concentrations to 500 ppm, was sprayed on turntable uniformly. After the spraying, it was allowed to stand in a thermostatic chamber at 25° C. Two days after the treatment of an agrochemical dispersion, the dead mites were counted, the corrected mortality rate was calculated according to the formula shown below, and the acaricidal efficacy was evaluated according to the criteria of Test Example 2. This test was conducted in duplicate using 10 adult hens of two-spotted spider per plot. Corrected mortality(%)=(Number of dead mites in a non-treatment plot−Number of dead mites in a treatment plot)/(Number of dead mites in a non-treatment plot)×100 [Expression 4]

[2] = tested on: Green peach aphid (Myzus persicae); assay: Test for control efficacy on green peach aphid (foliar application on Chinese cabbage); format: in vivo; conditions: 500 ppm, foliar application to potted Chinese cabbage, 6 days after application
Excerpt: Test for Control Efficacy on Green Peach Aphid (Myzus persicae) Chinese cabbage plants were planted in plastic pots (diameter: 8 cm, height: 8 cm), green peach aphids were propagated on the plants, and the number of surviving Green peach aphids in each pot was counted. The benzimidazole compounds represented by the general formula (1) of the present invention or salts thereof were separately dispersed in water and diluted to 500 ppm. The agrochemical dispersions were applied to the foliage of the potted Chinese cabbage plants. After the plants were air-dried, the pots were kept in a greenhouse. At 6 days after the foliar application, the number of surviving Green peach aphids on the Chinese cabbage plant in each pot was counted, the control rate was calculated according to the formula shown below, and the control efficacy was evaluated according to the criteria shown below. Control rate=100−{(T×Ca)/(Ta×C)}×100 [Expression 1] Ta: the number of survivors before the foliar application in a treatment plot T: the number of survivors after the foliar application in a treatment plot Ca: the number of survivors before the foliar application in a non-treatment plot C: the number of survivors after the foliar application in a non-treatment plot Criteria • A: the control rate is 100%. • B: the control rate is 90 to 99%. • C: the control rate is 80 to 89%. • D: the control rate is 50 to 79%.

Row | SMILES | acaricidal efficacy (corrected mortality rate), activity level [1] | control efficacy (control rate), activity level [2]
1 | CCCCCCCCc1cn(-c2nc3ccccc3n2S(=O)(=O)CC)cn1 [Compound 1-4] | D or higher | D or higher
2 | CCCCCC/C=C\c1cn(-c2nc3ccccc3n2S(=O)(=O)CC)cn1 [Compound 1-6] | D or higher | D or higher
3 | CCS(=O)(=O)n1c(-n2cnc(Cc3ccccc3)c2)nc2ccccc21 [Compound 1-8] | D or higher | D or higher
4 | CCS(=O)(=O)n1c(-n2cnc(CCc3ccc(Cl)cc3)c2)nc2ccccc21 [Compound 1-12] | D or higher | D or higher
5 | CCS(=O)(=O)n1c(-n2cnc(CCc3ccc(Cl)cc3Cl)c2)nc2ccccc21 [Compound 1-13] | D or higher | D or higher
6 | CCS(=O)(=O)n1c(-n2cnc(C(F)(F)C(F)(F)C(F)(F)C(F)(F)F)c2)nc2ccccc21 [Compound 1-27] | D or higher | D or higher
7 | CCS(=O)(=O)n1c(-n2cnc(C(=O)Nc3ccccc3)c2)nc2ccccc21 [Compound 1-30] | – | D or higher
8 | CCS(=O)(=O)n1c(-n2cnc(COCC(F)(F)C(F)(F)C(F)(F)F)c2)nc2ccccc21 [Compound 1-32] | D or higher | D or higher
9 | CCS(=O)(=O)n1c(-n2cc(C#Cc3ccc(C(F)(F)F)cc3)cn2)nc2ccccc21 [Compound 2-8] | D or higher | D or higher
10 | CCS(=O)(=O)n1c(-n2cc(C(F)(C(F)(F)F)C(F)(F)F)cn2)nc2ccccc21 [Compound 2-10] | D or higher | D or higher
11 | CCS(=O)(=O)n1c(-n2cc(C(=O)OC(C)(C)C)cn2)nc2ccccc21 [Compound 2-11] | D or higher | D or higher
12 | CCS(=O)(=O)n1c(-n2cc(Cl)c(C(F)(F)F)n2)nc2ccccc21 [Compound 2-13] | D or higher | D or higher
13 | CS(=O)(=O)n1c(-n2cc(I)c(C(F)(F)F)n2)nc2ccccc21 [Compound 2-15] | D or higher | D or higher
14 | CCS(=O)(=O)n1c(-n2cc(/C=C/C(=O)OCc3ccc(C(F)(F)F)cc3)c(C(F)(F)F)n2)nc2ccccc21 [Compound 2-115] | D or higher | –
15 | CCS(=O)(=O)n1c(-n2cc(/C=C/C(=O)OCC34CC5CC(CC(C5)C3)C4)c(C(F)(F)F)n2)nc2ccccc21 [Compound 2-116] | D or higher | –
16 | CCS(=O)(=O)n1c(-n2cc(/C=C/C(=O)NCC(F)(F)F)c(C(F)(F)F)n2)nc2ccccc21 [Compound 2-117] | D or higher | –
17 | CCS(=O)(=O)n1c(-n2cc(C#Cc3ccccn3)c(C(F)(F)F)n2)nc2ccccc21 [Compound 2-118] | D or higher | –
18 | CCS(=O)(=O)n1c(-n2cc(C(C)=O)c(C)n2)nc2ccccc21 [Compound 2-119] | D or higher | –
19 | CCS(=O)(=O)n1c(-n2cc(S(=O)(=O)N(C)C)c(C(F)(F)F)n2)nc2ccccc21 [Compound 2-120] | D or higher | –
20 | CCS(=O)(=O)n1c(-n2cc(SCc3ccc(C(C)(C)C)cc3)c(C(F)(F)F)n2)nc2ccccc21 [Compound 2-121] | D or higher | –
21 | CCCC#Cc1cn(-c2nc3ccccc3n2S(=O)(=O)CC)nc1C(F)(F)F [Compound 2-122] | D or higher | –
22 | CCS(=O)(=O)n1c(-n2cc(C#CC3CC3)c(C(F)(F)F)n2)nc2ccccc21 [Compound 2-123] | D or higher | –
23 | CCS(=O)(=O)n1c(-n2cc(C#CC(C)(C)C)c(C(F)(F)F)n2)nc2ccccc21 [Compound 2-124] | D or higher | –
24 | CCCCCc1cn(-c2nc3ccccc3n2S(=O)(=O)CC)nc1C(F)(F)F [Compound 2-125] | D or higher | –

Row | SMILES | acaricidal efficacy (corrected mortality rate), activity level [1] | control efficacy (control rate), activity level [2]
25 | CCS(=O)(=O)n1c(-n2cc(CCC3CC3)c(C(F)(F)F)n2)nc2ccccc21 [Compound 2-126] | D or higher | –
26 | CCS(=O)(=O)n1c(-n2cc(CCC(C)(C)C)c(C(F)(F)F)n2)nc2ccccc21 [Compound 2-127] | D or higher | –
27 | CCS(=O)(=O)n1c(-n2cc(C#CCOC)c(C(F)(F)F)n2)nc2ccccc21 [Compound 2-128] | D or higher | –
28 | CCS(=O)(=O)n1c(-n2cc(C#CC(C)(C)OC)c(C(F)(F)F)n2)nc2ccccc21 [Compound 2-129] | D or higher | –
29 | CCS(=O)(=O)n1c(-n2cc(/C=C/C(=O)OC(C)(C)C)c(C(=O)OC(C)(C)C)n2)nc2ccccc21 [Compound 2-130] | D or higher | –
30 | CCS(=O)(=O)n1c(-n2cc(C(=O)CC(C)(C)C)c(CC(C)(C)C)n2)nc2ccccc21 [Compound 2-131] | D or higher | –
31 | CCS(=O)(=O)n1c(-n2cc(C#CCOC(=O)C(C)(C)C)c(C(F)(F)F)n2)nc2ccccc21 [Compound 2-132] | D or higher | –
32 | CCS(=O)(=O)n1c(-n2cc(C#CC(C)(C)C)c(C(=O)OC(C)(C)C)n2)nc2ccccc21 [Compound 2-133] | D or higher | –
33 | CCS(=O)(=O)n1c(-n2cc(CCCOC(=O)C(C)(C)C)c(C(F)(F)F)n2)nc2ccccc21 [Compound 2-134] | D or higher | –
34 | CCS(=O)(=O)n1c(-n2cc(CCC(=O)OC(C)(C)C)c(C(=O)OC(C)(C)C)n2)nc2ccccc21 [Compound 2-135] | D or higher | –
35 | CCS(=O)(=O)n1c(-n2cc(Br)c(OC(F)(F)C(=O)N(C)C)n2)nc2ccccc21 [Compound 2-136] | D or higher | –
36 | CCS(=O)(=O)n1c(-n2cc(CCC(C)(C)C)c(C(=O)OC(C)(C)C)n2)nc2ccccc21 [Compound 2-137] | D or higher | –
37 | CCS(=O)(=O)n1c(-n2cc(C#CCOCC(F)(F)F)c(C(F)(F)F)n2)nc2ccccc21 [Compound 2-138] | D or higher | –
38 | CCS(=O)(=O)n1c(-n2cc(C(=O)OC(C)(C)C)c(OC(F)F)n2)nc2ccccc21 [Compound 2-139] | D or higher | –
39 | CCS(=O)(=O)n1c(-n2cc(SCC(F)(F)C(F)(F)F)cn2)nc2ccccc21 [Compound 2-141] | D or higher | –
40 | CCS(=O)(=O)n1c(-n2cc(C(=O)CC(C)C)c(CC(C)C)n2)nc2ccccc21 [Compound 2-142] | D or higher | –
41 | CCOC(=O)/C=C/c1nn(-c2nc3ccccc3n2S(=O)(=O)CC)cc1C(=O)OCC [Compound 2-143] | D or higher | –
42 | CCS(=O)(=O)n1c(-n2cc(C(=O)OC(C)(C)C)c(/C=C/C(=O)OC(C)(C)C)n2)nc2ccccc21 [Compound 2-144] | D or higher | –
43 | CCS(=O)(=O)n1c(-n2cc(C(=O)OC(C)(C)C)c(C#CC(C)(C)C)n2)nc2ccccc21 [Compound 2-145] | D or higher | –
44 | CCS(=O)(=O)n1c(-n2cnc(C(F)(F)C(F)(F)F)n2)nc2ccccc21 [Compound 3-2] | D or higher | –
45 | CCS(=O)(=O)n1c(-n2cnc(SC)n2)nc2ccccc21 [Compound 3-4] | D or higher | –
46 | CCS(=O)(=O)n1c(-n2ccc(C(=O)OC(C)(C)C)c2)nc2ccccc21 [Compound 7-1] | D or higher | –
47 | CCS(=O)(=O)n1c(-n2cc(C(=O)OC)c(C(=O)OC)c2)nc2ccccc21 [Compound 7-6] | D or higher | –
